For data set [1], the system named is rat caudal artery. As to the kind of experiment: Rat caudal artery ring contractile force (vasoconstrictory activity). Also on record: species or system rat (male Wistar). Conditions: for Emax: Table 1, read-out: Vasoconstriction: maximum contractile effect as a % of 90 mM KCl contraction. Put shortly: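 Endothelium-denuded caudal artery rings from male Wistar rats were held at 2 g resting tension in Tyrode solution (37° C, pH 7.35, 95% O2/CO2) and isometric force was recorded. Compounds were tested at 50 μM, with contraction expressed as percent of the 90 mM KCl response.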

The subject of data set [2] is Sprague Dawley rats. Kind of data set: Palatability (choice) trial, peanut butter bait. Type of data set: in vivo, rat (Sprague Dawley). Conditions: 2 days.
Data set [3] relates to Sprague Dawley rats. As to the kind of experiment: Palatability (no-choice) trial, peanut butter bait. It counts as in vivo, rat (Sprague Dawley). The following applies: po, 1% w/w toxicant in peanut butter bait, n = 6, 3 male and 3 female rats, Table 11, read-out: No of deaths (converted). The source says: In the palatability trials, Sprague Dawley rats (ca. 250 g) were presented with 1% w/w compound (n=6) or 0.5% w/w compound (n=5) in a peanut butter bait, following 3 days ‘pre-baiting’ with a peanut butter formulation free of toxicant.

Data set [4] relates to Sprague Dawley rats. Kind of data set: In vivo lethality, oral gavage. Also noted: species or system rat (Sprague Dawley). Conditions: rat; for Time to Death (min) / Onset of Symptoms: mean time; for Onset of Symptoms: visual signs of distress consistent with NRB-like symptoms; for In vivo lethality (oral): n = 2. Put shortly: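 Sprague Dawley rats (150-200 g) received compound dissolved in 0.2 M HCl (5% DMSO overall) at the desired dose, by oral gavage or tail-vein i.v. injection. Animals were watched for early toxicity signs every minute (i.v.) or every 15 min (oral).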

[5] abbreviates: choice of EPA diet (20 g) and bait with 1% w/w toxicant (20 g), n = 2, Table 15.

Molecules are shown by their SMILES. Marks after values point to notes of the source that are not given here.

Molecule `COc1ccccc1C(=O)OCN1C(=O)C2C3C=C(C(O)(c4ccccc4)c4ccccn4)C(C3=C(c3ccccc3)c3ccccn3)C2C1=O` (stereo not drawn) [Compound 13, 5-(α-Hydroxy-α-2-pyridylbenzyl)-N-o-methoxybenzoyloxymethyl-7-(α-2-pyridylbenzylidene)-5-norbornene-2,3-dicarboximide] gave a melting point of 83 to 88 °C. Moreover, in data set [1], the Emax is 90%. For the same molecule, the “Vasoconstriction: maximum contractile effect as a % of 90 mM KCl contraction” value in data set [1] (Table 4, pre-cleavage, n = 3) is 90%.

Consider `O=C(OCN1C(=O)C2C3C=C(C(O)(c4ccccc4)c4ccccn4)C(C3=C(c3ccccc3)c3ccccn3)C2C1=O)c1ccccc1` (stereo not drawn) [Compound 12, N-Benzoyloxymethyl-5-(α-hydroxy-α-2-pyridylbenzyl)-7-(α-2-pyridylbenzylidene)-5-norbornene-2,3-dicarboximide], for which the melting point lay within 94 to 96 °C. The Emax in data set [1] is not below 132%. Also, the “Vasoconstriction: maximum contractile effect as a % of 90 mM KCl contraction” value in data set [1] (Table 4, pre-cleavage, n = 3) was “≧132%”.

As for `O=C(C=Cc1ccc([N+](=O)[O-])cc1)OCCN1C(=O)C2C3C=C(C(O)(c4ccccc4)c4ccccn4)C(C3=C(c3ccccc3)c3ccccn3)C2C1=O` (stereo not drawn) [Compound 130, 5-(α-Hydroxy-α-2-pyridylbenzyl)-N-[2′-(4″-nitrocinnamoyloxy)ethyl]-7-(α-2-pyridylbenzylidene)-5-norbornene-2,3-dicarboximide], the melting point fell in the range of 105 to 110 °C. Also, in data set [1], the Emax came to 20%.

In turn, `COc1cc(C=CC(=O)OCCN2C(=O)C3C4C=C(C(O)(c5ccccc5)c5ccccn5)C(C4=C(c4ccccc4)c4ccccn4)C3C2=O)cc(OC)c1OC` (stereo not drawn) [Compound 133, 5-(α-Hydroxy-α-2-pyridylbenzyl)-7-(α-2-pyridylbenzylidene)-N-[2′-(3″,4″,5″-trimethoxycinnamoyloxy)ethyl]-5-norbornene-2,3-dicarboximide] yielded a melting point of 109 to 113 °C. For the same molecule, in data set [1], the Emax was found to be 30%.

On to `COc1ccccc1C=CC(=O)OCCN1C(=O)C2C3C=C(C(O)(c4ccccc4)c4ccccn4)C(C3=C(c3ccccc3)c3ccccn3)C2C1=O` (stereo not drawn) [Compound 124, 5-(α-Hydroxy-α-2-pyridylbenzyl)-N-[2′-(2″-methoxycinnamoyloxy)ethyl]-7-(α-2-pyridylbenzylidene)-5-norbornene-2,3-dicarboximide], for which the melting point was 101 to 108 °C. In data set [1], the Emax came to 23%.

In the case of `COc1cccc(C(=O)OCN2C(=O)C3C4C=C(C(O)(c5ccccc5)c5ccccn5)C(C4=C(c4ccccc4)c4ccccn4)C3C2=O)c1` (stereo not drawn) [Compound 14, 5-(α-Hydroxy-α-2-pyridylbenzyl)-N-m-methoxybenzoyloxymethyl-7-(α-2-pyridylbenzylidene)-5-norbornene-2,3-dicarboximide], the melting point lay within 171 to 180 °C. Besides, the Emax in data set [1] is 0%. Also, in data set [1] (Table 4, pre-cleavage, n = 3), the “Vasoconstriction: maximum contractile effect as a % of 90 mM KCl contraction” value is given as 0%.

Regarding `O=C(CCc1ccccc1)OCN1C(=O)C2C3C=C(C(O)(c4ccccc4)c4ccccn4)C(C3=C(c3ccccc3)c3ccccn3)C2C1=O` (stereo not drawn) [Compound 18, N-Dihydrocinnamoyloxymethyl-5-(α-hydroxy-α-2-pyridylbenzyl)-7-(α-2-pyridylbenzylidene)-5-norbornene-2,3-dicarboximide], the melting point lay within 89 to 94 °C. Besides, the Emax in data set [1] was 13%. The “Vasoconstriction: maximum contractile effect as a % of 90 mM KCl contraction” value in data set [1] (Table 4, pre-cleavage, n = 3) stood at 13%.

As to `O=C1NC(=O)C2C3C(C(O)(c4ccccc4)c4ccccn4)=CC(C3=C(c3ccccc3)c3ccccn3)C12` (stereo not drawn) [NRB, 5-(α-Hydroxy-α-2-pyridylbenzyl)-7-(α-2-pyridylbenzylidene)-5-norbornene-2,3-dicarboximide, reference compound], the Emax in data set [1] was 132%. Further, the “Vasoconstriction: maximum contractile effect as a % of 90 mM KCl contraction” value was “^aMaximum contractile effect as a % of 90 mM KCl contraction (rat caudal artery); stereoisomeric mixture of NRB = 132%” in data set [1] (Table 5, compounds of formula (III)) and “^aMaximum contractile effect as a % of 90 mM KCl contraction (rat caudal artery); stereoisomeric mixture of NRB = 132%” in data set [1] (Table 7, compounds of formula (V)). Moreover, the No of deaths is 5/12 in data set [2] (setting [5]); 2/12 in data set [2] (choice of EPA diet (20 g) and bait with 1% w/w toxicant (20 g), n = 12, Table 14); 5/12 in data set [2] (choice of standard lab pellets (20 g) and bait with 1% w/w toxicant (20 g), n = 12, Table 13).

The molecule `CCCC(=O)OCN1C(=O)C2C3C=C(C(O)(c4ccccc4)c4ccccn4)C(C3=C(c3ccccc3)c3ccccn3)C2C1=O` (stereo not drawn) [Compound 9, N-Butanoyloxymethyl-5-(α-hydroxy-α-2-pyridylbenzyl)-7-(α-2-pyridylbenzylidene)-5-norbornene-2,3-dicarboximide] showed a melting point of 68 to 79 °C. For the same molecule, in data set [1], the Emax came to 86%. Moreover, the “Vasoconstriction: maximum contractile effect as a % of 90 mM KCl contraction” value in data set [1] (Table 4, pre-cleavage, n = 3) was 86%.

In the case of `CCc1ccc(C=CC(=O)OCCN2C(=O)C3C4C=C(C(O)(c5ccccc5)c5ccccn5)C(C4=C(c4ccccc4)c4ccccn4)C3C2=O)cc1` (stereo not drawn) [Compound 335, N-[2′-(4″-Ethylcinnamoyloxy)ethyl]-5-(α-hydroxy-α-2-pyridylbenzyl)-7-(α-2-pyridylbenzylidene)-5-norbornene-2,3-dicarboximide], the mortality at 1 % in data set [3] was 100%. Moreover, in data set [4] (20 mg/Kg), the “Time to Death (min)” value was 90^e min and the “Onset of Symptoms” value is given as 15 min. Also, the “In vivo lethality (oral)” value in data set [4] (40 mg/Kg) is recorded as “yes^h”. In data set [1], the Emax stood at 19%. In data set [1] (Table 4, pre-cleavage, n = 3), the “Vasoconstriction: maximum contractile effect as a % of 90 mM KCl contraction” value is on record as 19%. The No of deaths in data set [2] (setting [5]) is 7/12.

`O=C(C=Cc1ccc(OC(F)(F)F)cc1)OCCN1C(=O)C2C3C=C(C(O)(c4ccccc4)c4ccccn4)C(C3=C(c3ccccc3)c3ccccn3)C2C1=O` (stereo not drawn) [Compound 127, 5-(α-Hydroxy-α-2-pyridylbenzyl)-7-(α-2-pyridylbenzylidene)-N-[2′-(4″-trifluoromethoxycinnamoyloxy)ethyl]-5-norbornene-2,3-dicarboximide] showed a melting point of 100 to 105 °C. The Emax in data set [1] was 0%. The “Vasoconstriction: maximum contractile effect as a % of 90 mM KCl contraction” value in data set [1] (Table 4, pre-cleavage, n = 3) amounted to 0%.

The molecule `O=C(C=Cc1ccc(Cl)c(Cl)c1)OCCN1C(=O)C2C3C=C(C(O)(c4ccccc4)c4ccccn4)C(C3=C(c3ccccc3)c3ccccn3)C2C1=O` (stereo not drawn) [Compound 134, N-[2′-(3″,4″-Dichlorocinnamoyloxy)ethyl]-5-(α-hydroxy-α-2-pyridylbenzyl)-7-(α-2-pyridylbenzylidene)-5-norbornene-2,3-dicarboximide] displayed a melting point of 99 to 104 °C. Besides, in data set [1], the Emax came out at 0%. The “Vasoconstriction: maximum contractile effect as a % of 90 mM KCl contraction” value in data set [1] (Table 4, pre-cleavage, n = 3) turned out to be 0%.

Take `Cc1ccc(CC(=O)OCN2C(=O)C3C4C=C(C(O)(c5ccccc5)c5ccccn5)C(C4=C(c4ccccc4)c4ccccn4)C3C2=O)cc1` (stereo not drawn) [Compound 324, 5-(α-Hydroxy-α-2-pyridylbenzyl)-N-4-methylphenylacetoyloxymethyl-7-(α-2-pyridylbenzylidene)-5-norbornene-2,3-dicarboximide]: the mortality at 1 % in data set [3] is 100%. For the same molecule, in data set [4] (20 mg/Kg), the “Time to Death (min)” value is reported as 60^d min, the “Onset of Symptoms” value is 15 min and the “In vivo lethality (oral)” value is reported as “yes^h,i”. For the same molecule, the “In vivo lethality (oral)” value in data set [4] (40 mg/Kg) is “yes^h,i”. In addition, the Emax in data set [1] was determined as 17%. The “Vasoconstriction: maximum contractile effect as a % of 90 mM KCl contraction” value in data set [1] (Table 4, pre-cleavage, n = 3) amounted to 17%. For the same molecule, in data set [2] (setting [5]), the No of deaths was 5/12.

The term melting point denotes the temperature, or range, at which the solid turns liquid.
